This is an account of results in patent publication US20150342964A1, “DEXAMETHASONE POLYMER IMPLANT FOR PAIN” (Warsaw Orthopedic, Inc., priority 2014, published 2015).

The structures appear in SMILES notation. Entries after “also recorded” stand apart in the source; their conditions may differ.

Data set [1] is described as follows: Body weight, side effects and adverse reactions observed over the 57-day rat CCI study. Conditions: systemic, sc 0.02 mg/kg every day, 57-day study.
For data set [2], the system named is rat chronic constriction injury (CCI) model. The data set is described as follows: von Frey Monofilament Test (mechanical/tactile allodynia) in rat CCI model of neuropathic pain. The note with it: systemic, subcutaneous 0.02 mg/kg every day from day 7 post-surgery.
Data set [3] has the same test system. Briefly: Thermal Paw Withdrawal Latency Test (thermal hyperalgesia) in rat CCI model of neuropathic pain. Conditions: systemic, subcutaneous 0.02 mg/kg every day from day 7 post-surgery; p<0.05.

Turning to `Clc1cccc(Cl)c1N=C1NCCN1` [clonidine], the “overt side effects or adverse reactions at the site of injection” value in data set [1] is on record as “no overt side effects or adverse reactions at the site of injection; also recorded: did not cause any overt side effects or adverse reactions”. In addition, the “mechanical allodynia (paw withdrawal threshold) relative to either PBS or unloaded pellet” value in data set [2] is “no effect on paw withdrawal threshold responses”. Also, the “thermal paw withdrawal responses/latencies relative to both PBS and unloaded PLA pellet” value in data set [3] is on record as “increased thermal paw withdrawal latencies on various test days”.

As to `C[C@@H]1C[C@H]2[C@@H]3CCC4=CC(=O)C=C[C@]4(C)[C@@]3(F)[C@@H](O)C[C@]2(C)[C@@]1(O)C(=O)CO` [dexamethasone, (8S, 9R, 10S, 11S, 13S, 14S, 16R, 17R)-9-Fluoro-11,17-dihydroxy-17-(2-hydroxyacetyl)-10,13,16-trimethyl-6,7,8,11,12,14,15,16-octahydro-cyclopenta[a]phenanthren-3-one], in data set [1], the “overt side effects or adverse reactions at the site of injection” value is “no overt side effects or adverse reactions at the site of injection; also recorded: did not cause any overt side effects or adverse reactions”.
